Entries after “also recorded” stand apart in the source; their conditions may differ. Some results are limits rather than exact numbers.

For orientation: IC50 means the concentration at which inhibition is half-maximal. For orientation: EC50 means the midpoint of the concentration-response curve.

The test system of one experiment is B9 (HRAS Q61L) cell line. Put plainly: B9 P-ERK cell activation assay (AlphaScreen). In kind it is cell-based, mouse. The note with it: for EC50: Mus musculus, P-ERK cell activation, B9, numeric bounds, read-out: Cell activity (EC50 μM) B9_pERK. An outline of the steps: (§1)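 Mouse B9 (HRAS-driven skin SCC) or human IPC-298 melanoma cells treated with an 8-point compound titration for one hour at 37° C., then lysed. ERK1/2 phosphorylation at Thr202/Tyr204 read by AlphaScreen with total-ERK and phospho-ERK antibodies.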
(Alpha assays give light when donor and acceptor beads are brought close together.)

For experiment [1], the system named is IPC-298 (NRAS Q61L) cell line. Put plainly: IPC-298 P-ERK cell activation assay (AlphaScreen). In kind it is cell-based, human. The note with it: for EC50: Homo sapiens, P-ERK cell activation, IPC-298, numeric bounds, read-out: Cell activity (EC50 μM) IPC-298_P-ERK. An outline of the steps:
as §1

The subject of experiment [2] is A375 (BRAF V600E) cell line. Put plainly: A375 P-ERK inhibition assay (AlphaScreen). In kind it is cell-based, human. The note with it: for IC50: Homo sapiens, A-375, A375_P-ERK. In short, it runs like this: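 A375 cells treated with 8-point compound titration for 1 h at 37° C, then lysed. ERK1/2 Thr202/Tyr204 phosphorylation measured by AlphaScreen, using biotinylated total-ERK antibody on donor beads and phospho-specific antibody on acceptor beads.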

Experiment [3] concerns mutant BRAF V600 driven melanoma. The settings on record: cited from earlier work.
Experiment [4] relates to gastric cancer cell line MKN28. The note with it: cited from earlier work.
For another experiment, the system named is B9 cells. As to the kind of experiment: Anchorage-independent growth assay of B9 cells in soft agar. It is filed as cell-based, mouse. The settings on record: 3 weeks; for effect on vemurafenib-induced B9 colony formation: combination with vemurafenib, soft agar. The procedure: Anchorage-independent growth assay. 2.5×10^4 B9 cells were plated in each well of a six-well plate with a bottom layer of 1% and a top layer of 0.4% low melting agar (Sigma A4018, Dallas, Tex.) containing RPMI1640 medium with 10% FBS. For RAF inhibitor study, B9 cells grown in soft agar were treated with vemurafenib, compound P-1000 or compound A at indicated concentration or dimethyl sulfoxide (DMSO) for 3 weeks. For EGFR ligand study, B9 cells grown in soft agar were treated with AREG (R&D systems 989-AR, Minneapolis, Minn.), TGFα (R&D systems 239-A, Minneapolis, Minn.) or HB-EGF (R&D systems 259-HE, Minneapolis, Minn.) at the indicated concentrations for 3 weeks. For vemurafenib and erlotinib combination study, B9 cells grown in soft agar were treated with vemurafenib, erlotinib or a combination of the two compounds at the indicated concentrations or DMSO for 3 weeks. Anchorage-independent colonies ≥100 μm were scored using AxioVision Rel 4.8 software (CarlZeiss, Wake Forest, N.C.).
B9 cells grown in soft agar were treated with AREG, TGFα or HBEGF at the indicated concentrations for 3 weeks. Anchorage-independent colonies ≥100 μm were scored. B9 cells grown in soft agar were treated with vemurafenib or a combination of vemurafenib and erlotinib at the indicated concentrations for 3 weeks. Anchorage-independent colonies ≥100 μm were scored.

For another experiment, the target named is T1, BRAF V600E (Homo sapiens, UniProt P15056, V600E).
T1 construct: purchased Upstate Biotechnology
As to the kind of experiment: BRAF V600E biochemical kinase activity assay (AlphaScreen, biotin-MEK1 substrate). The note with it: BRAF V600E biochemical inhibitory activity.

T1 sequence (P15056 whole entry V600E): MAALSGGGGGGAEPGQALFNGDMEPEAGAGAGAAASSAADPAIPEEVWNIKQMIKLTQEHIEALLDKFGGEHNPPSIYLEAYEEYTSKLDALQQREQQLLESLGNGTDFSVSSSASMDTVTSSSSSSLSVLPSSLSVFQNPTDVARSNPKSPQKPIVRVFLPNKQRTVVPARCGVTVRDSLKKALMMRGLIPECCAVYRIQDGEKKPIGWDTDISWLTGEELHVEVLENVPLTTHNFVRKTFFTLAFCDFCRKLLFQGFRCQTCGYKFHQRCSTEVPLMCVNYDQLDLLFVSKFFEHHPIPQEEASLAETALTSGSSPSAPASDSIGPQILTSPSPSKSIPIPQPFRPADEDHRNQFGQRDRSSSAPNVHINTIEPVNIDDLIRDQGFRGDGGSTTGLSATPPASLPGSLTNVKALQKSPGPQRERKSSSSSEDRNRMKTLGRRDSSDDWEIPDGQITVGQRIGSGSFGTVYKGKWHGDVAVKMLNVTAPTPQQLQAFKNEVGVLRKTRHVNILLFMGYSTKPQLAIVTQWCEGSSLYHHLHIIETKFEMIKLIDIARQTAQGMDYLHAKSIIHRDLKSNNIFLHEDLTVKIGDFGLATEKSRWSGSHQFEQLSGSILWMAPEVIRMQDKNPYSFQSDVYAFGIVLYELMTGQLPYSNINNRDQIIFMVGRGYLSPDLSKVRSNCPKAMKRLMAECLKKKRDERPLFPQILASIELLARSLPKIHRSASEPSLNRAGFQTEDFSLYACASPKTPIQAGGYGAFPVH

As to `CC(C)(C)c1nc(-c2cccc(NS(=O)(=O)c3c(F)cccc3F)c2F)c(-c2ccnc(N)n2)s1` [dabrafenib, reference compound], the pERK activation result is given as “unusual bell-shaped pERK activation curve” in the experiment on B9 (HRAS Q61L) cell line (RAS mutant cell line B9, one hour treatment) and “unusual bell-shaped pERK activation curve” in experiment [1] (RAS mutant cell line IPC-298, one hour treatment). The pERK inhibition result in experiment [2] (BRAF V600E cell line A375) is reported as “highly potent inhibitor”. For the same molecule, the “tumor response in patients” value in experiment [3] was “objective tumor response”.
With `CS(=O)(=O)Nc1ccc([N+](=O)[O-])cc1OC1CCCCC1` [NS-398], in experiment [4], the “proliferation and growth of MKN28” value was “significantly inhibit proliferation and growth”.
Turning to `CCCS(=O)(=O)Nc1ccc(F)c(C(=O)c2c[nH]c3ncc(Cl)cc23)c1F` [P-1000, N-[3-(5-chloro-1H-pyrrolo[2,3-b]pyridine-3-carbonyl)-2,4-difluoro-phenyl]propane-1-sulfonamide], the “B9 colony formation / anchorage-independent growth in soft agar” value in the experiment with B9 cells (colonies ≥100 μm scored) is recorded as “stimulated B9 colony formation; also recorded: increased anchorage independent cell growth”.
Take `C#Cc1cccc(Nc2ncnc3cc(OCCOC)c(OCCOC)cc23)c1` [Erlotinib]: the “effect on vemurafenib-induced B9 colony formation” value in the experiment on B9 cells was “inhibited”; in the experiment with B9 cells (listed as erlotinib), “antagonizes vemurafenib-induced B9 colony formation”.
On to `COc1ccc2c(c1)c(CC(=O)O)c(C)n2C(=O)c1ccc(Cl)cc1` [indomethacin], for which the “proliferation and growth of MKN28” value in experiment [4] is “significantly inhibit proliferation and growth”.
Take `CCCNc1ncnc2[nH]cc(C(=O)c3cccc(NS(=O)(=O)N(C)CC)c3F)c12` [P-2066, 5-[3-[[ethyl(methyl)sulfamoyl]amino]-2-fluoro-benzoyl]-4-(propylamino)-7H-pyrrolo[2,3-d]pyrimidine]: the IC50 (against BRAF V600E; in experiment [2]) was 0.0001 to 1 µM in each case. The EC50 (in the experiment with B9 (HRAS Q61L) cell line; in experiment [1]) was > 10 µM in each case.
Regarding `O=C(c1cc(F)cc(NS(=O)(=O)N2CCCC2)c1F)c1c[nH]c2ncc(-c3cnc(C4CC4)nc3)cc12` [P-2171, N-[3-[5-(2-cyclopropylpyrimidin-5-yl)-1H-pyrrolo[2,3-b]pyridine-3-carbonyl]-2,5-difluoro-phenyl]pyrrolidine-1-sulfonamide], the IC50 (against BRAF V600E; in experiment [2]) was 0.0001 to 1 µM throughout. Besides, the EC50 was > 10 µM in the experiment on B9 (HRAS Q61L) cell line and > 1 µM in experiment [1].
Consider `CN(C)S(=O)(=O)Nc1ccc(F)c(C(=O)c2c[nH]c3nccc(Cl)c23)c1F` [Compound P-2007, 4-chloro-3-[3-(dimethylsulfamoylamino)-2,6-difluoro-benzoyl]-1H-pyrrolo[2,3-b]pyridine], for which the IC50 (against BRAF V600E; in experiment [2]) was 0.0001 to 1 µM in each case. In addition, the EC50 (with B9 (HRAS Q61L) cell line; in experiment [1]) was > 10 µM each time.
Turning to `O=C(c1c(F)ccc(NS(=O)(=O)C2CCOCC2)c1F)c1c[nH]c2ncnc(NCC3CC3)c12` [P-2058, N-[3-[4-(cyclopropylmethylamino)-7H-pyrrolo[2,3-d]pyrimidine-5-carbonyl]-2,4-difluoro-phenyl]tetrahydropyran-4-sulfonamide], the IC50 (at BRAF V600E; in experiment [2]) was 0.0001 to 1 µM throughout. Besides, the EC50 (in the experiment with B9 (HRAS Q61L) cell line; in experiment [1]) was > 10 µM in each case.
On to `COc1ccnc2[nH]cc(C(=O)c3c(F)ccc(NS(=O)(=O)N4CCOCC4)c3F)c12` [P-2023, N-[2,4-difluoro-3-(4-methoxy-1H-pyrrolo[2,3-b]pyridine-3-carbonyl)phenyl]morpholine-4-sulfonamide], for which the figures for the IC50 (against BRAF V600E; in experiment [2]) were 0.0001 to 1 µM and 1 to 10 µM, respectively. In addition, the EC50 (in the experiment with B9 (HRAS Q61L) cell line; in experiment [1]) was > 10 µM throughout.
As for `COc1ccnc2[nH]cc(C(=O)c3c(F)ccc(NS(=O)(=O)C4CCCCC4)c3F)c12` [Compound P-2005, N-[2,4-difluoro-3-(4-methoxy-1H-pyrrolo[2,3-b]pyridine-3-carbonyl)phenyl]cyclohexanesulfonamide], the figures for the IC50 (against BRAF V600E; in experiment [2]) were 0.0001 to 1 µM and 1 to 10 µM, respectively. Further, the EC50 (in the experiment on B9 (HRAS Q61L) cell line; in experiment [1]) was > 10 µM each time.
